# Data published in patent publication US20050148553A1, “Use of tigecycline, alone, or in combination with rifampin to treat osteomyelitis and/or septic arthritis” (priority 2003, published 2005).
# Experiment: Whole body autoradiography after 30-minute 3 mg/kg IV infusion of [^14C]-tigecycline
# Type: in vivo, Sprague-Dawley rats
# Method: Male Sprague-Dawley and Long-Evans rats were obtained from Charles River Breeding Laboratories, Raleigh, N.C., and were quarantined for at least one week prior to the start of the study. […] The dosing solution was diluted and radioassayed directly in Ultima Gold scintillation counting cocktail (Packard Inc.). […] All pumps were calibrated prior to the administration of the compound. Rats were anesthetized with isoflurane prior to cardiac puncture exsanguination at the prescribed times after dosing. […] Control whole blood was collected from male Sprague-Dawley rats into tubes containing sodium heparin. Pooled blood was used to prepare the calibration standards and quality control samples. The standards were used to construct the standard curve for the quantification of radiolabeled drug distribution in tissues of whole blood cryosections. The quality controls, which were embedded in the same CMC block with each rat, were used for assessing intra- and inter-section variation in the thickness of rat whole-body cryosections. […] Immediately following euthanasia, each rat was totally immersed in a bath of hexane and dry ice (−75° C.) until frozen. Each carcass was dried and stored at −30° C. until embedded. […] Each frozen rat was sagitally sectioned at −20° C. A sufficient number of sections were collected to ensure sampling of all tissues of interest. The sections were dehydrated overnight in a cryochamber and then rapidly transferred to a dessicator containing CaSO4 to prevent condensation of atmospheric moisture while equilibrating to room temperature. The sections were mounted on cardboard and labeled with [^14C]-labeled black ink with a unique identification number. […] A small piece of Scotch tape was placed over the dried radioactive ink to prevent the contamination of the storage phosphor screens. Phosphor imaging plates, BAS-SR 2025 (Fuji Photo Film Co., Japan) were exposed to bright visible light for 20 minutes using an IP eraser (Raytest, USA Inc., New Castle, Del.) to remove background radiation. Sections and calibration blood standards were concurrently placed in direct contact with Ips and exposed for 7 days. All sections were stored at room temperature in a lead shielding box to minimize background levels. Phosphor images were generated using a Fujifilm BAS-5000 Bio-Imaging Analyzer and quantitated by MCID M2 Software, version 3.2 (Imaging Research Inc., St. Catherines, Ontario, Canada). The STDs and QCs were analyzed using the circular sampling tool in the MCID software program. Areas of interest in whole-body sections were manually outlined with the regional sampling tool to generate count data. Radioactive concentrations in select tissues were determined by digital analysis of the resulting autoradiograms on the basis of a calibration curve. […] The linear regression curve was then used to determine the concentration of unknown radioactivity of study samples. […] Blood samples were combusted using a Model 307 sample oxidizer (Packard Instrument Company). […] Research Triangle Park, N.C.), which applies a model-independent approach and standard procedures as described in Gibaldi and Perrier. Gibaldi, Pharmacokinetics, 1982. […] For IV infusion dosing, C30 min was the concentration at 30 minutes, the first sampling time point. The maximum plasma concentration (Cmax) and the corresponding time of peak concentration following IV administration were obtained directly by numerical inspection from the individual concentration-time data. The terminal half-life was calculated by the ratio of ln2/λz where λz is derived from the terminal slope of the concentration time curve. The area under the plasma concentration versus time curve from zero to infinity was calculated using the trapezoidal rule, where Clast is the last measurable plasma concentration. […]
compound,measurement,setting,value
CN(C)c1cc(NC(=O)CNC(C)(C)C)c(O)c2c1C[C@H]1C[C@H]3[C@H](N(C)C)C(O)=C(C(N)=O)C(=O)[C@@]3(O)C(O)=C1C2=O [[^14C]-Tigecycline],AUC,Adrenal Gland,29515 Ng eq hr/g
same,Mean concentration of total radioactivity,"Adrenal Gland, 0.5 Hrs",3580 ng equiv./g
same,Tissue:Plasma Ratio,"Adrenal Gland, 0.5 Hrs",4.00
same,Mean concentration of total radioactivity,"Adrenal Gland, 8.5 Hrs",941 ng equiv./g
same,Tissue:Plasma Ratio,"Adrenal Gland, 8.5 Hrs",1.87
same,Mean concentration of total radioactivity,"Adrenal Gland, 24 Hrs",68.9 ng equiv./g
same,Tissue:Plasma Ratio,"Adrenal Gland, 24 Hrs",4.67
same,Mean concentration of total radioactivity,"Adrenal Gland, 72 Hrs",19.3 ng equiv./g
same,Tissue:Plasma Ratio,"Adrenal Gland, 72 Hrs",4.47
same,Mean concentration of total radioactivity,"Adrenal Gland, 168 Hrs",<5.10 ng equiv./g
same,Mean concentration of total radioactivity,"Adrenal Gland, 336 Hrs",<5.10 ng equiv./g
same,AUC,"Adrenal Gland, first AUC column",29153 Ng eq hr/g
same,AUC,Blood,1261 Ng eq hr/g
same,Tissue:Plasma Ratio,"Blood, 0.5 Hrs",1.43
same,Tissue:Plasma Ratio,"Blood, 8.5 Hrs",1.24
same,Tissue:Plasma Ratio,"Blood, 24 Hrs",3.01
same,Tissue:Plasma Ratio,"Blood, 72 Hrs",2.74
same,AUC,"Blood, first AUC column",12063 Ng eq hr/g
same,AUC,Bone,794704 Ng eq hr/g
same,AUC,Bone Marrow,47468 Ng eq hr/g
same,Mean concentration of total radioactivity,"Bone Marrow, 0.5 Hrs",4376 ng equiv./g
same,Tissue:Plasma Ratio,"Bone Marrow, 0.5 Hrs",4.89
same,Mean concentration of total radioactivity,"Bone Marrow, 8.5 Hrs",1562 ng equiv./g
same,Tissue:Plasma Ratio,"Bone Marrow, 8.5 Hrs",3.10
same,Mean concentration of total radioactivity,"Bone Marrow, 24 Hrs",291 ng equiv./g
same,Tissue:Plasma Ratio,"Bone Marrow, 24 Hrs",19.7
same,Mean concentration of total radioactivity,"Bone Marrow, 72 Hrs",22.5 ng equiv./g
same,Tissue:Plasma Ratio,"Bone Marrow, 72 Hrs",5.21
same,Mean concentration of total radioactivity,"Bone Marrow, 168 Hrs",<5.10 ng equiv./g
same,Mean concentration of total radioactivity,"Bone Marrow, 336 Hrs",<5.10 ng equiv./g
same,AUC,"Bone Marrow, first AUC column",47116 Ng eq hr/g
same,Mean concentration of total radioactivity,"Bone, 0.5 Hrs",3312 ng equiv./g
same,Tissue:Plasma Ratio,"Bone, 0.5 Hrs",3.70
same,Mean concentration of total radioactivity,"Bone, 8.5 Hrs",3794 ng equiv./g
same,Tissue:Plasma Ratio,"Bone, 8.5 Hrs",7.53
same,Mean concentration of total radioactivity,"Bone, 24 Hrs",2711 ng equiv./g
same,Tissue:Plasma Ratio,"Bone, 24 Hrs",184
same,Mean concentration of total radioactivity,"Bone, 72 Hrs",1787 ng equiv./g
same,Tissue:Plasma Ratio,"Bone, 72 Hrs",414
same,Mean concentration of total radioactivity,"Bone, 168 Hrs",1526 ng equiv./g
same,Mean concentration of total radioactivity,"Bone, 336 Hrs",720 ng equiv./g
same,AUC,"Bone, first AUC column",569498 Ng eq hr/g
same,AUC,Brain,2865 Ng eq hr/g
same,Cmax,Brain,54 Ng equiv/g
same,Mean concentration of total radioactivity,"Brain, 0.5 Hrs",35.8 ng equiv./g
same,Tissue:Plasma Ratio,"Brain, 0.5 Hrs",0.040
same,Mean concentration of total radioactivity,"Brain, 8.5 Hrs",54.3 ng equiv./g
same,Tissue:Plasma Ratio,"Brain, 8.5 Hrs",0.108
same,Mean concentration of total radioactivity,"Brain, 24 Hrs",35.8 ng equiv./g
same,Tissue:Plasma Ratio,"Brain, 24 Hrs",2.42
same,Mean concentration of total radioactivity,"Brain, 72 Hrs",13.3 ng equiv./g
same,Tissue:Plasma Ratio,"Brain, 72 Hrs",3.10
same,Mean concentration of total radioactivity,"Brain, 168 Hrs",<5.10 ng equiv./g
same,Mean concentration of total radioactivity,"Brain, 336 Hrs",<5.10 ng equiv./g
same,AUC,"Brain, first AUC column",2256 Ng eq hr/g
same,AUC,Eyes,3221 Ng eq hr/g
same,Cmax,Eyes,108 Ng equiv/g
same,Mean concentration of total radioactivity,"Eyes, 0.5 Hrs",106 ng equiv./g
same,Tissue:Plasma Ratio,"Eyes, 0.5 Hrs",0.118
same,Mean concentration of total radioactivity,"Eyes, 8.5 Hrs",108 ng equiv./g
same,Tissue:Plasma Ratio,"Eyes, 8.5 Hrs",0.215
same,Mean concentration of total radioactivity,"Eyes, 24 Hrs",36.6 ng equiv./g
same,Tissue:Plasma Ratio,"Eyes, 24 Hrs",2.46
same,Mean concentration of total radioactivity,"Eyes, 72 Hrs",6.76 ng equiv./g
same,Tissue:Plasma Ratio,"Eyes, 72 Hrs",1.57
same,Mean concentration of total radioactivity,"Eyes, 168 Hrs",<5.10 ng equiv./g
same,Mean concentration of total radioactivity,"Eyes, 336 Hrs",<5.10 ng equiv./g
same,AUC,"Eyes, first AUC column",3060 Ng eq hr/g
same,AUC,Fat,3500 Ng eq hr/g
same,Mean concentration of total radioactivity,"Fat, 0.5 Hrs",450 ng equiv./g
same,Tissue:Plasma Ratio,"Fat, 0.5 Hrs",0.50
same,Mean concentration of total radioactivity,"Fat, 8.5 Hrs",144 ng equiv./g
same,Tissue:Plasma Ratio,"Fat, 8.5 Hrs",0.287
same,Mean concentration of total radioactivity,"Fat, 24 Hrs",<5.1 ng equiv./g
same,Mean concentration of total radioactivity,"Fat, 72 Hrs",<5.10 ng equiv./g
same,Mean concentration of total radioactivity,"Fat, 168 Hrs",<5.10 ng equiv./g
same,Mean concentration of total radioactivity,"Fat, 336 Hrs",<5.10 ng equiv./g
same,AUC,"Fat, first AUC column",2489 Ng eq hr/g
same,AUC,Heart,40179 Ng eq hr/g
same,Mean concentration of total radioactivity,"Heart, 0.5 Hrs",5657 ng equiv./g
same,Tissue:Plasma Ratio,"Heart, 0.5 Hrs",6.32
same,Mean concentration of total radioactivity,"Heart, 8.5 Hrs",1138 ng equiv./g
same,Tissue:Plasma Ratio,"Heart, 8.5 Hrs",2.26
same,Mean concentration of total radioactivity,"Heart, 24 Hrs",69.9 ng equiv./g
same,Tissue:Plasma Ratio,"Heart, 24 Hrs",4.74
same,Mean concentration of total radioactivity,"Heart, 72 Hrs",6.98 ng equiv./g
same,Tissue:Plasma Ratio,"Heart, 72 Hrs",1.62
same,Mean concentration of total radioactivity,"Heart, 168 Hrs",<5.10 ng equiv./g
same,Mean concentration of total radioactivity,"Heart, 336 Hrs",<5.10 ng equiv./g
same,AUC,"Heart, first AUC column",40083 Ng eq hr/g
same,AUC,Kidney,70704 Ng eq hr/g
same,Cmax,Kidney,7601 Ng equiv/g
same,Mean concentration of total radioactivity,"Kidney, 0.5 Hrs",7601 ng equiv./g
same,Tissue:Plasma Ratio,"Kidney, 0.5 Hrs",8.49
same,Mean concentration of total radioactivity,"Kidney, 8.5 Hrs",1725 ng equiv./g
same,Tissue:Plasma Ratio,"Kidney, 8.5 Hrs",3.42
same,Mean concentration of total radioactivity,"Kidney, 24 Hrs",140 ng equiv./g
same,Tissue:Plasma Ratio,"Kidney, 24 Hrs",9.49
same,Mean concentration of total radioactivity,"Kidney, 72 Hrs",47.9 ng equiv./g
same,Tissue:Plasma Ratio,"Kidney, 72 Hrs",11.1
same,Mean concentration of total radioactivity,"Kidney, 168 Hrs",41.3 ng equiv./g
same,Mean concentration of total radioactivity,"Kidney, 336 Hrs",13.9 ng equiv./g
same,AUC,"Kidney, first AUC column",68333 Ng eq hr/g
same,AUC,Liver,53527 Ng eq hr/g
same,Cmax,Liver,7300 Ng equiv/g
same,Mean concentration of total radioactivity,"Liver, 0.5 Hrs",7300 ng equiv./g
same,Tissue:Plasma Ratio,"Liver, 0.5 Hrs",8.16
same,Mean concentration of total radioactivity,"Liver, 8.5 Hrs",1192 ng equiv./g
same,Tissue:Plasma Ratio,"Liver, 8.5 Hrs",2.37
